From article PMC3630091, “A Mechanistic Paradigm for Broad-Spectrum Antivirals that Target Virus-Cell Fusion” (PLoS Pathogens, 2013)
Like-named read-outs stand apart in the source and are kept apart here.

Experiments:
NDV = assay: microbe, parasite or virus in culture; format: cell-based, Newcastle disease virus
H1N1 = assay: microbe, parasite or virus in culture; format: cell-based, Influenza A A/PR/8/34 (H1N1); conditions: read-out: IC50 H1N1
RABV = assay: microbe, parasite or virus in culture; format: cell-based; conditions: Lyssavirus rabies, 10 min, read-out: IC50 RABV
[1] = Singlet oxygen quantum yield measurements; format: physicochemical; conditions: for 1O2 QY 355 nm: in CD2Cl2, excitation 355 nm; for 1O2 QY 355 nm / 1O2 QY 532 nm: error is one standard deviation; for 1O2 QY 532 nm: in CD2Cl2, excitation 532 nm
EBOV = assay: microbe, parasite or virus in culture; format: cell-based, Ebola Zaire; conditions: Zaire ebolavirus, 10 min, read-out: IC50 EBOV
HIV = assay: microbe, parasite or virus in culture; format: cell-based; conditions: Human immunodeficiency virus 1, 10 min
[2] = Absorbance spectra / UV-visible spectra integration; format: physicochemical; conditions: for Abs Max (λmax): 100 µM in DMSO; for AUC (400-750 nm): integrated absorption divided by concentration, normalized relative to LJ001 (LJ001 = 100)
[3] = Membrane partition into HIV membrane-like mixture LUV (fluorescence); conditions: for IL / Iw: HIV-like mixture LUV, fluorescence intensity ratio from curve fitting
RVFV = assay: microbe, parasite or virus in culture; format: cell-based, Rift Valley fever MP-12 (vaccine strain); conditions: Rift Valley fever virus, 10 min, read-out: IC50 RVFV
[4] = Singlet oxygen quenching measurements; format: physicochemical; conditions: 355 nm with C60 as external sensitizer; error is one standard deviation
[5] = tested on: VSV-ΔG-rluc pseudotyped with NiV envelope glycoproteins, F and G
NiV = assay: microbe, parasite or virus in culture; format: cell-based, Nipah virus Malaysia
[6] = Acrylamide quenching in POPC vesicles; format: physicochemical; conditions: >50-fold molar excess of lipid; 3 mM POPC vesicles
CMV = assay: microbe, parasite or virus in culture; format: cell-based, Cytomegalovirus (strain T3259); conditions: Human betaherpesvirus 5, 10 min, read-out: IC50 CMV, 10 min white light exposure of treated virus
enveloped viruses [7] = tested on: enveloped viruses; design: method as in PMID 20133606; conditions: non-cytotoxic concentrations; read-out: IC50, entry of numerous enveloped viruses; cited from earlier work
[8] = Membrane partition into POPC LUV (fluorescence); conditions: for IL / Iw: POPC LUV, fluorescence intensity ratio from curve fitting
HSV = assay: microbe, parasite or virus in culture; format: cell-based, Herpes simplex virus-1; conditions: Human alphaherpesvirus 1, 10 min
VSV = assay: microbe, parasite or virus in culture; format: cell-based; conditions: Vesicular stomatitis virus, 10 min, read-out: IC50 VSV
[9] = Clinical observations after single dose in PK study; format: in vivo, female Balb/c mice
Experimental: Dose administration. […] These mice were replaced and the dose level was reduced to 5 mg/kg. […] Hypoactivity was the only clinical observation noted in some of the mice treated with the 3 test articles at 10 and 100 mg/kg po. […] These animals were replaced and administered with the lower ip dose level of 1.25 mg/kg and underwent blood collections. Mice received single ip doses of 1.25 mg/kg (JL109 and JL118) or 5 mg/kg (JL122) and po doses of 10 mg/kg (JL109, JL118, JL122), 50 mg/kg (JL109, JL118), or 100 mg/kg (JL109, JL118, JL122).

[10] = tested on: influenza virus A (A/PR/8/34 H1N1); conditions: 5 µM, light 1 h
SFV = assay: microbe, parasite or virus in culture; format: cell-based; conditions: Semliki Forest virus, BHK, 10 min, read-out: IC50 SFV
HeV = assay: microbe, parasite or virus in culture; format: cell-based, Hendra virus; conditions: Henipavirus hendraense, 10 min, read-out: IC50 HeV
in vitro = conditions: human
[11] = reference sensitizer value; cited from earlier work
RVFV ZH501 = format: in vivo, Balb/c mice
HIV-1JR-CSF = format: cell-based
enveloped viruses [12] = format: cell-based
[13] = read-out: IC50 ± SD (nM) (N=x) HIV
[14] = avian paramyxovirus 1, 10 min, read-out: IC50 ± SD (nM) (N=x) NDV
[15] = read-out: IC50 ± SD (nM) (N=x) HSV

CCN1C(=O)/C(=C/c2ccc(-c3ccccc3)o2)OC1=S [JL101]
IC50 (NDV; read-out: IC50 ± SD (nM) (N=x) NDV): 8800 nM

C=CCN1C(=O)/C(=C/c2ccc(-c3ccccc3)o2)SC1=S [LJ001, (Z)-3-allyl-5-((5-phenylfuran-2-yl)methylene)-2-thioxothiazolidin-4-one]
IC50 (H1N1; Influenza A virus, H1N1, 10 min): 25.7 nM
IC50 (H1N1): 26 nM
IC50 (RABV): 5290 nM
1O2 QY 355 nm [1]: 0.20 ± 0.02
1O2 QY 532 nm [1]: 0
IC50 (EBOV): 900 nM
IC50 (HIV; read-out: IC50 HIV): 133 nM
IC50 (HIV; [13]): 182 ± 244 nM
Abs Max (λmax) [2]: 455 nm
AUC (400-750 nm) [2]: 100
Kp at 10 min, 50 µM [3]: 5190
IL / Iw [3]: 2.41
IC50 (RVFV): 20 nM
kT × 10-7 [4]: 0.189 ± 0.010 M-1s-1
t1/2 (inhibition half-life, time-of-addition) [5]: 1.12 h
clearance (Pharmacokinetics in mice; female, Balb/c, mouse, in vivo): ~700 mL/min/kg
half-life (Pharmacokinetics in mice; female, Balb/c, mouse, in vivo): 0.2 h
time post-dose up to which plasma levels were detectable (Pharmacokinetics in mice; ip 5 mg/kg): ≤ 0.5 h
time post-dose up to which plasma levels were detectable (Pharmacokinetics in mice; iv 10 mg/kg): up to 1 hr
IC50 (NiV; Henipavirus nipahense, 10 min, read-out: IC50 NiV, 10 min white light exposure of treated virus): 47.5 nM
IC50 (NiV; read-out: IC50 NiV, 10 min white light exposure of treated virus): 48 nM
fraction protected from the water-soluble quencher (acrylamide) [6]: over 85%
IC50 (CMV): 147 nM
IC50 (enveloped viruses [7]): ≤ 500 nM
IC50 (NDV; avian paramyxovirus 1, 10 min, read-out: IC50 NDV): 95 nM
IC50 (NDV; [14]): 181 ± 105 nM
IL / Iw [8]: 2.29
IC50 (HSV; read-out: IC50 HSV): 20 nM
IC50 (HSV; [15]): 35.3 ± 48.3 nM
IC50 (VSV): 298 nM
clinical observations ([9]; single dose 5 mg/kg ip): appeared normal
clinical observations ([9]; single dose 10 mg/kg ip): 2 were sacrificed in moribund condition and 1 was found dead
increase in the number of oxidized forms of unsaturated phospholipids compared to LJ025-treated samples [10]: up to 300 fold
IC50 (SFV): 537 nM
IC50 (HeV): 18 nM
CC50 (in vitro): 11900 nM

C1=Cc2nc1c(-c1ccccc1)c1ccc([nH]1)c(-c1ccccc1)c1nc(c(-c3ccccc3)c3ccc([nH]3)c2-c2ccccc2)C=C1 [TPP]
1O2 QY of reference compound at 532 nm [11]: 0.62

CCN1C(=S)O/C(=C\c2ccc(-c3c(OC)cc(OC)cc3OC)o2)C1=S [JL122, (Z)-3-ethyl-5-((5-(2,4,6-trimethoxyphenyl)furan-2-yl)methylene)oxazolidine-2,4-dithione]
QY at 355 nm, times higher than LJ001 ([1]; 355 nm): about 2 times
1O2 QY 355 nm [1]: 0.43 ± 0.04
1O2 QY 532 nm [1]: 0.23 ± 0.02
IC50 (HIV; [13]): 64 ± 41.5 nM
Abs Max (λmax) [2]: 545 nm
AUC (400-750 nm) [2]: 153
total integrated absorption (AUC), times that of LJ001 ([2]; λ = 400 to 750 nm): 1.53 times
Kp at 10 min, 50 µM [3]: 267
IL / Iw [3]: 613.7
kT × 10-7 [4]: 1.970 ± 0.050 M-1s-1
MRT last (Pharmacokinetics in mice; female, Balb/c, mouse, in vivo): 4.7 to 7 h
Tmax (Pharmacokinetics in mice; female, Balb/c, mouse, in vivo): 0.25 to 1 h
AUC(0-t) (Pharmacokinetics in mice; female, Balb/c, mouse, in vivo, ip, 5 mg/kg): 569 ng·h/mL
Cmax (Pharmacokinetics in mice; female, Balb/c, mouse, in vivo, ip, 5 mg/kg, ip 5 mg/kg): 122 ng/mL
AUC(0-t) (Pharmacokinetics in mice; female, Balb/c, mouse, in vivo, ip, 10 mg/kg): 924 ng·h/mL
Cmax (Pharmacokinetics in mice; female, Balb/c, mouse, in vivo, ip, 10 mg/kg, ip 10 mg/kg): 132 ng/mL
AUC(0-t) (Pharmacokinetics in mice; female, Balb/c, mouse, in vivo, po, 10 mg/kg): 232 ng·h/mL
Cmax (Pharmacokinetics in mice; female, Balb/c, mouse, in vivo, po, 50 mg/kg, po 50 mg/kg): 122 ng/mL
AUC(0-t) (Pharmacokinetics in mice; female, Balb/c, mouse, in vivo, po, 100 mg/kg): 1270 ng·h/mL
improvements in relevant pharmacokinetic (PK) parameters compared to LJ001 (Pharmacokinetics in mice; half-life, AUC, bioavailability, clearance): > 10 fold
time-to-death / survival compared to untreated controls (RVFV ZH501; 20 pfu RVFV ZH501 IP, IP once a day for 7 days from 1 h post-challenge, JL118 1.25 mg/kg, JL122 and JL103 10 mg/kg): moderate but significant delay in time-to-death
Median survival (RVFV ZH501; 50 pfu RVFV ZH501 IP, 10 mg/kg IP at 1, 12, 24 and 48 h post-challenge, n = 5): 6 days
IC50 (NDV; [14]): 0.9 ± 0.8 nM
Kp at 10 min, 50 µM [8]: 1130
IL / Iw [8]: 143.8
IC50 (HSV; [15]): 2.4 ± 1.4 nM
antiviral potency at physiological hematocrits (HIV-1JR-CSF): maintained their antiviral potency
improved in vitro potency compared to LJ001 (enveloped viruses [12]): 10-100 fold
CC50 (in vitro): 10300 nM
